Values after ≈ are worked out from the molar mass of the structure shown. Where two headings read alike, the source gives them in different places.
Columns and labels:
C. neoformans isolates [1] = assay: MIC determination, EUCAST methodology; format: cell-based, Cryptococcus neoformans; conditions: for MIC: Cryptococcus neoformans
Experimental: (§1) The initial in vitro susceptibility testing was performed with H99 (ATCC 208821). An additional 49 clinical isolates were obtained from the National Centre for Microbiology Instituto de Salud Carlos III, Madrid, Spain (courtesy of Ana Alastruey-Izquierdo and Manual Cuenca-Estrella). These isolates were identified to the species level using standard microbiological techniques.
(§2) The MIC of flubendazole against H99 (ATCC 208821) and the 49 isolates was estimated using methodology of the European Committee on Antimicrobial Susceptibility Testing (EUCAST [25]) and the Clinical and Laboratory Standards Institute (CLSI [26]). The endpoint for MIC determination using was 50% for both the EUCAST and CLSI methods. MICs were performed in triplicate.

C. neoformans isolates [2] = assay: MIC determination, CLSI methodology; format: cell-based, Cryptococcus neoformans; conditions: 50 strains
Experimental: as §1, §2

porcine tubulin [3] = molecular target: T1, porcine tubulin (Sus scrofa, UniProt P02554); assay: Porcine tubulin polymerization assay; format: biochemical; conditions: 37°C, 1 h, read-out: IC50 against porcine tubulin
T1 construct: purified porcine brain tubulin; purchased Cytoskeleton, Inc., Denver, CO BK011P; host or cells: porcine brain (tissue-purified)
Experimental: Porcine tubulin is generally used as a surrogate for human tubulin because of its high degree of homology (95%) ([27]). […] The commercially available porcine tubulin assay (BK011P; Cytoskeleton, Inc., Denver, CO) quantifies the time-dependent polymerization of tubulin to microtubules and thus the ability of tubulin inhibitors to disrupt this process.
The porcine tubulin assay was performed according to the manufacturer's instructions. Briefly, the 96-well assay plate was prewarmed to 37°C prior to use. Five microliters of test compound(s) and controls at 0, 1.25, 2.5, 5, and 10 μM were aliquoted into each well and prewarmed for 1 min. […] Polymerization was initiated by mixing 45 μl of reaction buffer that contained 2 mg/ml of purified porcine brain tubulin, 10 μM fluorescent reporter, PEM buffer (80 mM PIPES, 0.5 mM EGTA, 2 mM MgCl2 [pH 6.9]), 1 mM GTP, and 20.3% glycerol. Tubulin polymerization was followed by an increase in fluorescence intensity due to the incorporation of a fluorescence reporter into microtubules as polymerization occurred. The change in fluorescence was measured using an excitation and emission wavelength of 360 nm and 450 nm, respectively, every 1 min for 1 h at 37°C using a Varioskan multimode plate reader (Thermo scientific Inc.). All data points were acquired in triplicate, and IC50s were calculated with GraphPad Prism. […]

In vitro DMPK: logD7.4 = format: physicochemical; conditions: pH 7.4; commercially available powder
[4] = In vitro DMPK: plasma protein binding; format: in vitro ADME
[5] = In vitro DMPK: human microsomal intrinsic clearance; format: in vitro ADME; conditions: human microsomes
[6] = In vitro DMPK: rat hepatic intrinsic clearance; format: in vitro ADME; conditions: hepatocytes
[7] = In vitro DMPK: aqueous solubility; format: physicochemical
[8] = tested on: C. neoformans var. grubii (ATCC 208821; H99); assay: Hollow-fiber infection model of cryptococcal meningoencephalitis; format: cell-based, Cryptococcus neoformans; conditions: q24h for 8 days, intended peaks 1.25, 2.5, 10 mg/liter
Experimental: A new hollow-fiber infection model was developed to investigate the in vitro pharmacodynamics of flubendazole against C. neoformans. The same cartridges (FiberCell Systems, Frederick, MD) and configuration as previously described for bacterial pathogens was used (see, for example, reference). The extracapillary space of each cartridge was inoculated with 40 ml of a suspension containing 6 log10 CFU/ml of C. neoformans var. grubii (ATCC 208821; H99). Yeast extract-peptone-dextrose (YPD) medium was pumped from the central compartment through the cartridge and back again using a peristaltic pump (205 U; Watson-Marlow, United Kingdom). The hollow-fiber infection model was incubated at 37°C in ambient air. The time course of fungal growth was determined by removing 1 ml from the extracapillary space of the cartridge and plating serial 10-fold dilutions to YPD agar.
The relationship between flubendazole exposure and its effect was explored using a range of drug exposures. […] Various doses of flubendazole were administered q24h by infusion over 1 h for 8 days to the central compartment using a programmable syringe driver (Aladdin pump; World Precision Instruments, United Kingdom). There was a 24-h delay in the initiation of flubendazole therapy postinoculation. […]

Cryptococcus neoformans [9] = format: in vivo, mice
[10] = design: species or system mice; conditions: mouse, in vivo
Experimental: The pharmacokinetics of oral flubendazole was determined with two independently conducted experiments. Treatment was initiated 24 h postinoculation. Doses of 2 to 12 mg/kg were used. Only the first dosing interval was studied. A serial-sacrifice design was used with groups of 3 mice that were sacrificed at 0.5, 1, 2, 8, and 24 h […].
(§3) The pharmacokinetic and pharmacodynamic data sets from mice were modeled using the program Pmetrics ([33]) and the following five inhomogeneous differential equations: (1) XP(1)=B(1)−Ka×X(1) (2) XP(2)=Ka×X(1)−(SCL/V)×X(2)−Kcp×X(2)+Kpc×X(3)−Kcb×X(2)+Kbc×X(4) (3) XP(3)=Kcp×X(2)−Kpc×X(3) (4) XP(4)=[…] (5) XP(5) = Kgmax [1−((X(4)/V)^Hg/C50g^Hg+(X(4)/V)^Hg)] × [1−(X(5)/POPMAX)]×X(5)
(§4) The system parameters and their units are as follows: B(1) (mg) represents the bolus input of flubendazole into the gut. Ka (h^−1) is the first-order rate constant collecting the gut and the central compartment, SCL (liters/h) is the clearance of flubendazole from the central compartment, V (liters) is the volume of the central compartment, and Kcp (h^−1) and Kpc (h^−1) are the first-order intercompartmental rate constants. Kgmax (log10 CFU/g/h) is the maximal rate of cryptococcal growth. POPMAX (CFU/g) is the maximum theoretical fungal density. C50g (mg/liter) is the concentration of flubendazole that induces half-maximal effects on growth. Hg is the slope function for growth. The initial condition (CFU/g; not shown in the equations) is the fungal density immediately following inoculation and is estimated along with other parameters.
(§5) Equations 1, 2, 3, and 4 are pharmacokinetic equations that describe the movement of drug from the gut, throughout the body, and into the brain. Equation 1 describes the movement of drug from the gut. Equation 2 describes the rate of change of flubendazole in the central compartment (plasma) with first-order clearance and movement of drug to and from both a peripheral (unmeasured) compartment and the cerebrum. Equations 3 and 4 describe the rate of change of drug in the peripheral and cerebral compartments, respectively. The pharmacodynamics of flubendazole against Cryptococcus neoformans is described by equation 5, which has terms that describe the capacity-limited growth of Cryptococcus and flubendazole-induced suppression of growth. The antifungal activity in the cerebrum is primarily related to concentrations in the cerebrum.

Cryptococcus neoformans [11] = assay: Pharmacodynamics of oral flubendazole nanoformulation in murine model of cryptococcal meningitis; format: in vivo; conditions: mice
Experimental: A previously described ([8]) and well-characterized murine model of cryptococcal meningitis was used to investigate the pharmacodynamics of flubendazole. All laboratory animal experiments were performed under UK Home Office project license PPL40/3630 and were approved by the University of Liverpool's Animal Welfare Ethics Review Board. Male CD1 mice were purchased from Charles River and were 20 to 30 g at the time of experimentation. An inoculum of 3 × 10^8 CFU in 0.25 ml was used for each mouse. Groups of mice (n = 3) were serially sacrificed throughout the experimental period. The brains were removed and homogenized. Serial 10-fold dilutions were plated to YPD agar supplemented with chloramphenicol to enumerate the total fungal burden. Plates were incubated in air at 30°C for at least 48 h.
The pharmacodynamics of oral flubendazole was estimated over the course of three separate independently conducted experiments. Groups of 3 mice were sacrificed at 2, 24, 48, 96, 144, and 168 h postinoculation. Dose finding studies were performed using flubendazole at 2, 4, 6, 8, and 12 mg/kg q24h orally. The upper dosage was limited by the volume restrictions for mice imposed by Home Office project license PPL40/3630. A fourth experiment compared 12 mg/kg q24 with 6 mg/kg q12h to examine whether more fractionated regimens provided any additional antifungal effect.
as §3, §4, §5

Cryptococcus neoformans [12] = assay: Pharmacodynamics in rabbit model of cryptococcal meningitis; format: in vivo; conditions: rabbits; for antifungal effect: CSF
Experimental: A previously described and well-characterized rabbit model of cryptococcal meningoencephalitis ([32]) was used to further investigate the pharmacodynamics of flubendazole. Male New Zealand White rabbits were purchased from Harlan. Rabbits weighed 2.5 to 3 kg at the time of experimentation. Rabbits were immunosuppressed intramuscularly with hydrocortisone at 10 mg/kg on day −1 relative to infection and then daily throughout the experiment.
Cryptococcal meningoencephalitis was induced with the intracisternal inoculation of 0.25 ml of a suspension containing 3.8 × 10^8 CFU/ml under general anesthesia (induced with medetomidine and ketamine). This inoculum results in progressive infection that manifests as an increase in fungal burden in the CSF and reproducible encephalitis. There was minimal clinical disease with no demonstrable neurological signs in the experimental period. Mortality always occurred in the context of cisternal tapping and repeated anesthesia rather than from progressive infection.
We directly linked plasma concentrations with the antifungal effect.

[13] = design: method as in PMID 26443851; conditions: cited from earlier work
[14] = tested on: filarial diseases such as onchocerciasis and lymphatic filariasis; design: method as in PMID 21609260; conditions: given subcutaneously; cited from earlier work
[15] = rats, 5, 15, 30 mg/kg/day (male), 2.5, 5, 10 mg/kg/day (female), 2 weeks; ref Janssen GLP toxicology studies; cited from earlier work
[16] = dogs, 20, 40, 100 mg/kg/day, 2 weeks; ref Janssen GLP toxicology studies; cited from earlier work
[17] = Pharmacokinetics of oral flubendazole in rabbits
Experimental: PK-PD relationships in the rabbit were estimated in two independently conducted experiments including 6 rabbits in each. Rabbits were placed under general anesthesia for removal of CSF via intracisternal tapping at 48 h intervals. […] Treatment was initiated 48 h postinoculation and continued for 10 days, after which time all rabbits were sacrificed. Thus, the total duration of the experiment was 288 h.
Flubendazole concentrations in all matrices were measured using validated ultrahigh-performance liquid chromatography-tandem mass spectrometry (LC-MS/MS) implemented on an Agilent 6420 triple quad mass spectrometer and an Agilent 1290 infinity LC system (Agilent Technologies UK Ltd., Cheshire, UK). Flubendazole was extracted by protein precipitation by adding 300 μl of a 50:50 mix of acetonitrile and methanol that contained the internal standard [6,7-dimethyl-2,3-di(2-pyridyl) quinoxaline; Sigma-Aldrich, Dorset, UK] at a final concentration of 1 mg/liter to 30 μl of each matrix.

porcine tubulin [18] = molecular target: T1, porcine tubulin; design: method as in doi:10.2533/chimia.2007.368; conditions: known tubulin inhibitors; cited from earlier work

T1 sequence (P02554 whole entry): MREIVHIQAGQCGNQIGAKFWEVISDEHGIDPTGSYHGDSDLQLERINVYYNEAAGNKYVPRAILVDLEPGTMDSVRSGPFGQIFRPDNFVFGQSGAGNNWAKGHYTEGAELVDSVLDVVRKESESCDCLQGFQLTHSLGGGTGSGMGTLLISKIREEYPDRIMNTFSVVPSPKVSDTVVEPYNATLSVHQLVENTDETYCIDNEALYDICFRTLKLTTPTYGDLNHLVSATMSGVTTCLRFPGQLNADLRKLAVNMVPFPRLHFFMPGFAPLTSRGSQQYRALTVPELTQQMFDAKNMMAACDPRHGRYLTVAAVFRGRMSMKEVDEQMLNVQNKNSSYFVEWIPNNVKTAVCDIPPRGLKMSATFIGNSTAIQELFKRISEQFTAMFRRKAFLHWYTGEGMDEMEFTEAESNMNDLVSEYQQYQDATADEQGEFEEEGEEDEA
T1 sequence (P02550 whole entry partner): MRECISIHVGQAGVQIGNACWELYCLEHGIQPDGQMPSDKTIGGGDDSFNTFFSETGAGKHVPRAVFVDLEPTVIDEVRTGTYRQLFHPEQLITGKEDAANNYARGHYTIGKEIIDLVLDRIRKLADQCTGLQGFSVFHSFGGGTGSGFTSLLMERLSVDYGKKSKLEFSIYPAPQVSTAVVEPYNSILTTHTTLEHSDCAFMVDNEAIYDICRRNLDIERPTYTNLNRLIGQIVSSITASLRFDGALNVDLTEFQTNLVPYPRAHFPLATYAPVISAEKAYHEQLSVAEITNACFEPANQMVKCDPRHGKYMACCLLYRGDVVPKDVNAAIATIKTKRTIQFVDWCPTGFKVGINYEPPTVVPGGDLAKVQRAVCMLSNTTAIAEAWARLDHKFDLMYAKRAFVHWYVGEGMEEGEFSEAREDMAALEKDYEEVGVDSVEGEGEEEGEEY

COC(=O)Nc1nc2cc(C(=O)c3ccc(F)cc3)ccc2[nH]1 [flubendazole]
MIC (C. neoformans isolates [1]; EUCAST methodology, read-out: modal MIC): 0.125 µg/mL (≈ 0.399 µM) | MIC (C. neoformans isolates [1]; range over isolates, Table 1, comparable with EUCAST and CLSI, read-out: MICs): 0.06 to 0.25 µg/mL (≈ 0.192 to 0.798 µM) | No. of isolates with MIC (mg/liter) of: 0.03 (C. neoformans isolates [1]; EUCAST, 50 strains): 1 | No. of isolates with MIC (mg/liter) of: 0.06 (C. neoformans isolates [1]; EUCAST, 50 strains): 19 | No. of isolates with MIC (mg/liter) of: 0.125 (C. neoformans isolates [1]; EUCAST, 50 strains): 25 | No. of isolates with MIC (mg/liter) of: 0.25 (C. neoformans isolates [1]; EUCAST, 50 strains): 5 | No. of isolates with MIC (mg/liter) of: 0.5 (C. neoformans isolates [1]; EUCAST, 50 strains): 0 | No. of isolates with MIC (mg/liter) of: 0.03 (C. neoformans isolates [2]): 2 | No. of isolates with MIC (mg/liter) of: 0.06 (C. neoformans isolates [2]): 40 | No. of isolates with MIC (mg/liter) of: 0.125 (C. neoformans isolates [2]): 8 | No. of isolates with MIC (mg/liter) of: 0.25 (C. neoformans isolates [2]): 0 | No. of isolates with MIC (mg/liter) of: 0.5 (C. neoformans isolates [2]): 0 | IC50 (porcine tubulin [3]): 2.38 µM | logD (In vitro DMPK: logD7.4): 2.9 | fraction unbound [4]: 0.094 | microsomal CLint [5]: 44 µL/min/mg | hepatocyte CLint [6]: 39 µL/min/1e6 cells | solubility [7]: 0.8 µM (≈ 0.251 µg/mL) | antifungal activity in hollow-fiber model [8]: Rapid fungicidal activity | antifungal effect, orally administered pure compound (Cryptococcus neoformans [9]; mice, oral, water, polysorbate 80/PBS, DMSO, PEG400 or cyclodextrin vehicles, data not shown): no demonstrable antifungal effect | flubendazole concentrations in plasma and cerebrum (Cryptococcus neoformans [9]; mouse, in vivo): quantifiable in plasma and the cerebrum | absorption after oral dosing [10]: rapidly absorbed | Ka, mean ([10]; po): 11.312 h⁻¹ | Ka, median ([10]; po): 14.895 h⁻¹ | Kbc, mean ([10]; po): 0.056 h⁻¹ | Kbc, median ([10]; po): 0.056 h⁻¹ | Kcb, mean ([10]; po): 3.446 h⁻¹ | Kcb, median ([10]; po): 0.594 h⁻¹ | Kcp, mean ([10]; po): 15.741 h⁻¹ | Kcp, median ([10]; po): 15.404 h⁻¹ | Kpc, mean ([10]; po): 16.997 h⁻¹ | Kpc, median ([10]; po): 16.915 h⁻¹ | SCL/F (apparent clearance), mean ([10]; po): 0.039 L/h | SCL/F (apparent clearance), median ([10]; po): 0.026 L/h | Vb/F (apparent volume of brain), mean ([10]; po): 0.277 L | Vb/F (apparent volume of brain), median ([10]; po): 0.146 L | Vc/F (apparent volume of central compartment), mean ([10]; po): 0.051 L | Vc/F (apparent volume of central compartment), median ([10]; po): 0.069 L | cerebrum concentrations relative to plasma ([10]; po): consistently higher than those observed in plasma | ratio of AUC for serum and AUC for cerebrum ([10]; po): 1:4.44 | reduction in fungal burden compared with vehicle-treated controls (Cryptococcus neoformans [11]; 12 mg/kg of body weight/day orally (abstract)): ~2 log10CFU/g | effect on fungal growth in the brain (Cryptococcus neoformans [11]; 12 mg/kg/day orally): slowed but did not prevent fungal growth in the brain | C50g (concentration inducing half-maximal effects on growth), mean (Cryptococcus neoformans [11]; PK-PD model): 2.04 mg/L | C50g (concentration inducing half-maximal effects on growth), median (Cryptococcus neoformans [11]; PK-PD model): 1.68 mg/L | Hg (slope function for effect on growth), mean (Cryptococcus neoformans [11]; PK-PD model): 10.338 | Hg (slope function for effect on growth), median (Cryptococcus neoformans [11]; PK-PD model): 5.096 | antifungal effect of 6 mg/kg q12h compared with 12 mg/kg/day (Cryptococcus neoformans [11]; oral, single experiment, data not shown): no difference in antifungal effect | antifungal effect (Cryptococcus neoformans [12]; 6 mg/kg/day orally): no demonstrable antifungal effect | antifungal effect (Cryptococcus neoformans [12]; 22.5 mg/kg q24h orally, few animals): the effect was small | fungal burden in the cerebrum at the end of the experiment vs other groups (Cryptococcus neoformans [12]; 6 and 22.5 mg/kg q24h, 288 h postinoculation, P = 0.464): no difference in the fungal burden | aneugenicity [13]: aneugenic | clastogenicity [13]: clastogenic | embryotoxicity [13]: embryotoxic | activity in filarial disease models [14]: striking activity | toxicity findings [15]: evidence of toxicity related to the pharmacological activity of flubendazole in the gastrointestinal tract, lymphoid system, and bone marrow, as well as testicular toxicity | liver toxicity [16]: liver toxicity was also observed | toxicity findings [16]: evidence of toxicity related to the pharmacological activity of flubendazole in the gastrointestinal tract, lymphoid system, and bone marrow, as well as testicular toxicity | oral bioavailability [17]: orally bioavailable | drug concentrations in CSF or cerebrum ([17]; oral 6 or 22.5 mg/kg q24h, at time of sacrifice, limit of quantitation 0.0005 mg/liter): no quantifiable drug concentrations

CC(=O)O[C@H]1C(=O)[C@@]2(C)[C@H]([C@H](OC(=O)c3ccccc3)[C@]3(O)C[C@H](OC(=O)[C@H](O)[C@@H](NC(=O)c4ccccc4)c4ccccc4)C(C)=C1C3(C)C)[C@]1(OC(C)=O)CO[C@@H]1C[C@@H]2O [paclitaxel]
IC50 (porcine tubulin [18]): 3.9 µM

CC[C@]1(O)C[C@@H]2CN(CCc3c([nH]c4ccccc34)[C@@](C(=O)OC)(c3cc4c(cc3OC)N(C)[C@H]3[C@@](O)(C(=O)OC)[C@H](OC(C)=O)[C@]5(CC)C=CCN6CC[C@]43[C@@H]65)C2)C1 [vinblastine]
IC50 (porcine tubulin [18]): 5.3 µM

Source: publication PMC5913986, “Repurposing and Reformulation of the Antiparasitic Agent Flubendazole for Treatment of Cryptococcal Meningoencephalitis, a Neglected Fungal Disease” (Antimicrobial Agents and Chemotherapy, 2018)
